In patent US20130028955A1, “SUSTAINED RELEASE ORAL MATRIX AND METHODS OF MAKING THEREOF” (priority 2011, published 2013):
Structures can show the parent of a compound that is named as a salt.

Assay: Dissolution, USP basket apparatus 1, simulated intestinal fluid pH 6.8
Format: physicochemical
Conditions: for drug release 0.5 h / drug release 1 h / drug release 2 h / drug release 4 h / drug release 8 h / drug release 12 h / drug release 24 h: Table 7, Example VII combination tablet; for drug release 0 h: Table 7, Example VII tablet: 20% silicone PSA, 8.7% tramadol HCl, 71.7% acetaminophen
Experimental: The release rate of these formulations were carried out using USP dissolution basket apparatus 1 (Vankel, Inc) using about 100 rpm stirring speed at about 37 C in about 900 ml of the dissolution medium. The dissolution medium used was simulated intestinal fluid with a pH of about 6.8. At predetermined time intervals, 1 ml of sample was withdrawn and was analyzed to determine acetaminophen concentration. Concentration of acetaminophen in the dissolution medium was determined using a HPLC method. A C8 column was used using mobile phase of 65% methanol and 35% water. Flow rate was 1 ml/min and the UV detection wavelength was 254 nm. The results are reported as average of six tablets. […] Total weight of each tablet was 500 mg. The diameters of the tablets were 13 mm.

SMILES | drug release 0.5 h | drug release 1 h | drug release 2 h | drug release 4 h | drug release 8 h | drug release 12 h | drug release 24 h | drug release 0 h
COc1cccc(C2(O)CCCCC2CN(C)C)c1 (stereo not shown) [Tramadol HCl, Tramadol hydrochloride] | 15.8 | 23.2 | 32.1 | 43.4 | 56.8 | 68.3 | 89.4 | 0.0
CC(=O)Nc1ccc(O)cc1 [APAP, acetaminophen] | 13.5 | 22.6 | 31.9 | 44.8 | 61.1 | 74.3 | 86.0 | 0.0
